According to patent publication US12421227B2, “Ribociclib salts and solid state forms thereof” (ASSIA CHEMICAL INDUSTRIES LTD., priority 2017, dated 2025):

Key:
[1] = exposure to 90% RH; cited from earlier work
[2] = cited from earlier work

hygroscopicity	Substance	physical form on exposure to humidity [1]	sorption/desorption behavior, hydrate formation ([2]; 90% RH condition in each cycle)	moisture absorbed ([2]; at 90% RH in each cycle)	hygroscopic behavior ([2]; at high humidity conditions)
–	Ribociclib succinate	change in physical form	formation of hydrate form is taking place	up to 2%	slight hygroscopic behavior
negligible hygroscopicity	Ribociclib succinate [Form B]	–	–	–	–
